Data from the supplement of paper PMC9663587.

Columns and labels:
[1] = compound: CC(=O)c1c(C)c2cnc(Nc3ccc(N4CCNCC4)cn3)nc2n(C2CCCC2)c1=O; test: increase in dead-cell fraction, 72 h; higher = more death;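 note: breast cancer cell lines in 384-well plates, stained with Hoechst plus LIVE/DEAD far red dye and imaged, cells above an LDR intensity threshold counted dead, Hoechst-negative corpses included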
[2] = compound: CCN1CCN(Cc2ccc(Nc3ncc(F)c(-c4cc(F)c5nc(C)n(C(C)C)c5c4)n3)nc2)CC1; test: as above
[3] = compound: CC(=O)c1c(C)c2cnc(Nc3ccc(N4CCNCC4)cn3)nc2n(C2CCCC2)c1=O; test: GR value, 72 h; higher = faster growth (1 = untreated, <0 = killing);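 note: breast cancer and non-malignant breast epithelial lines, nine half-log doses, viable cells counted by Hoechst and LIVE/DEAD dye imaging versus time-zero plates and DMSO controls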
[4] = compound: CCN1CCN(Cc2ccc(Nc3ncc(F)c(-c4cc(F)c5nc(C)n(C(C)C)c5c4)n3)nc2)CC1; test: as above
[5] = compound: CCc1cnn2c(NCc3ccc[n+]([O-])c3)cc(N3CCCC[C@H]3CCO)nc12; test: as above
Neratinib/HKI272 = compound: CCOc1cc2ncc(C#N)c(Nc3ccc(OCc4ccccn4)c(Cl)c3)c2cc1NC(=O)/C=C/CN(C)C [Neratinib/HKI272]; test: as above
Flavopiridol [6] = compound: T1, CN1CC[C@H](c2c(O)cc(O)c3c(=O)cc(-c4ccccc4Cl)oc23)[C@H](O)C1 [Flavopiridol]; test: increase in dead-cell fraction, 72 h; higher = more death;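 note: breast cancer cell lines in 384-well plates, stained with Hoechst plus LIVE/DEAD far red dye and imaged, cells above an LDR intensity threshold counted dead, Hoechst-negative corpses included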
LEE011/Ribociclib [7] = compound: T2, CN(C)C(=O)c1cc2cnc(Nc3ccc(N4CCNCC4)cn3)nc2n1C1CCCC1 [LEE011/Ribociclib]; test: as above
Flavopiridol [8] = compound: T1, Flavopiridol; test: GR value, 72 h; higher = faster growth (1 = untreated, <0 = killing);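 note: breast cancer and non-malignant breast epithelial lines, nine half-log doses, viable cells counted by Hoechst and LIVE/DEAD dye imaging versus time-zero plates and DMSO controls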
BSJ-03-123 = compound: CC(=O)c1c(C)c2cnc(Nc3ccc(N4CCN(CCOCCOCCOCCNC(=O)COc5cccc6c5C(=O)N(C5CCC(=O)NC5=O)C6=O)CC4)cn3)nc2n(C2CCCC2)c1=O [BSJ-03-123]; test: as above
LEE011/Ribociclib [9] = compound: T2, LEE011/Ribociclib; test: as above
THZ1 = compound: CN(C)C/C=C/C(=O)Nc1ccc(C(=O)Nc2cccc(Nc3ncc(Cl)c(-c4c[nH]c5ccccc45)n3)c2)cc1 [THZ1]; test: as above

HCC1500
increase in dead-cell fraction ([1]; 0.0003162 µM): -0.0019 | increase in dead-cell fraction ([1]; 0.001 µM): 0.0086 | increase in dead-cell fraction ([1]; 0.003162 µM): -0.0112 | increase in dead-cell fraction ([1]; 0.01 µM): 0.0091 | increase in dead-cell fraction ([1]; 0.03162 µM): 0.0038 | increase in dead-cell fraction ([1]; 0.1 µM): 0.019 | increase in dead-cell fraction ([1]; 0.3162 µM): 0.0086 | increase in dead-cell fraction ([1]; 1 µM): 0.009 | increase in dead-cell fraction ([1]; 3.162 µM): 0.0027 | increase in dead-cell fraction ([2]; 0.001 µM): -0.0021 | increase in dead-cell fraction ([2]; 0.003162 µM): -0.0174 | increase in dead-cell fraction ([2]; 0.01 µM): -0.0129 | increase in dead-cell fraction ([2]; 0.03162 µM): -0.0035 | increase in dead-cell fraction ([2]; 0.1 µM): -0.0151 | increase in dead-cell fraction ([2]; 0.3162 µM): -0.0201 | increase in dead-cell fraction ([2]; 1 µM): -0.015 | increase in dead-cell fraction ([2]; 3.162 µM): -0.0276 | increase in dead-cell fraction ([2]; 10 µM): 0.0351 | GR value ([3]; 0.0003162 µM): 1.03 GR | GR value ([3]; 0.001 µM): 1.16 GR | GR value ([3]; 0.003162 µM): 1.19 GR | GR value ([3]; 0.01 µM): 1.11 GR | GR value ([3]; 0.03162 µM): 0.838 GR | GR value ([3]; 0.1 µM): 0.676 GR | GR value ([3]; 0.3162 µM): 0.581 GR | GR value ([3]; 1 µM): 0.709 GR | GR value ([3]; 3.162 µM): 0.592 GR | GR value ([4]; 0.001 µM): 1.1 GR | GR value ([4]; 0.003162 µM): 0.961 GR | GR value ([4]; 0.01 µM): 0.802 GR | GR value ([4]; 0.03162 µM): 0.592 GR | GR value ([4]; 0.1 µM): 0.533 GR | GR value ([4]; 0.3162 µM): 0.701 GR | GR value ([4]; 1 µM): 0.494 GR | GR value ([4]; 3.162 µM): 0.395 GR | GR value ([4]; 10 µM): 0.195 GR | GR value ([5]; 0.0001 µM): 1.07 GR | GR value ([5]; 0.0003162 µM): 0.975 GR | GR value ([5]; 0.001 µM): 1.06 GR | GR value ([5]; 0.003162 µM): 1.06 GR | GR value ([5]; 0.01 µM): 0.674 GR | GR value ([5]; 0.03162 µM): -0.172 GR | GR value ([5]; 0.1 µM): -0.576 GR | GR value ([5]; 0.3162 µM): -0.534 GR | GR value ([5]; 1 µM): -0.601 GR | GR value (Neratinib/HKI272; 0.0003162 µM): 1.03 GR | GR value (Neratinib/HKI272; 0.001 µM): 1.13 GR | GR value (Neratinib/HKI272; 0.003162 µM): 1.01 GR | GR value (Neratinib/HKI272; 0.01 µM): 1.02 GR | GR value (Neratinib/HKI272; 0.03162 µM): 0.915 GR | GR value (Neratinib/HKI272; 0.1 µM): 0.889 GR | GR value (Neratinib/HKI272; 0.3162 µM): 0.793 GR | GR value (Neratinib/HKI272; 1 µM): 0.416 GR | GR value (Neratinib/HKI272; 3.162 µM): -0.245 GR

MCF10A (GM)
increase in dead-cell fraction (Flavopiridol [6]; 0.0001 µM): -0.0007 | increase in dead-cell fraction (Flavopiridol [6]; 0.0003162 µM): -0.0019 | increase in dead-cell fraction (Flavopiridol [6]; 0.001 µM): -0.0004 | increase in dead-cell fraction (Flavopiridol [6]; 0.003162 µM): -0.0003 | increase in dead-cell fraction (Flavopiridol [6]; 0.01 µM): 0.0027 | increase in dead-cell fraction (Flavopiridol [6]; 0.03162 µM): 0.0152 | increase in dead-cell fraction (Flavopiridol [6]; 0.1 µM): 0.0701 | increase in dead-cell fraction (Flavopiridol [6]; 0.3162 µM): 0.491 | increase in dead-cell fraction (Flavopiridol [6]; 1 µM): 0.66 | increase in dead-cell fraction (LEE011/Ribociclib [7]; 0.001 µM): 0.0013 | increase in dead-cell fraction (LEE011/Ribociclib [7]; 0.003162 µM): 0.0004 | increase in dead-cell fraction (LEE011/Ribociclib [7]; 0.01 µM): 0.002 | increase in dead-cell fraction (LEE011/Ribociclib [7]; 0.03162 µM): 0.0019 | increase in dead-cell fraction (LEE011/Ribociclib [7]; 0.1 µM): 0.0026 | increase in dead-cell fraction (LEE011/Ribociclib [7]; 0.3162 µM): 0.0035 | increase in dead-cell fraction (LEE011/Ribociclib [7]; 1 µM): 0.0035 | increase in dead-cell fraction (LEE011/Ribociclib [7]; 3.162 µM): 0.0073 | increase in dead-cell fraction (LEE011/Ribociclib [7]; 10 µM): 0.0229 | GR value (Flavopiridol [8]; 0.0001 µM): 1 GR | GR value (Flavopiridol [8]; 0.0003162 µM): 1.01 GR | GR value (Flavopiridol [8]; 0.001 µM): 1.01 GR | GR value (Flavopiridol [8]; 0.003162 µM): 0.996 GR | GR value (Flavopiridol [8]; 0.01 µM): 0.962 GR | GR value (Flavopiridol [8]; 0.03162 µM): 0.842 GR | GR value (Flavopiridol [8]; 0.1 µM): 0.557 GR | GR value (Flavopiridol [8]; 0.3162 µM): -0.244 GR | GR value (Flavopiridol [8]; 1 µM): -0.319 GR | GR value (BSJ-03-123; 0.001 µM): 0.904 GR | GR value (BSJ-03-123; 0.003162 µM): 0.952 GR | GR value (BSJ-03-123; 0.01 µM): 0.879 GR | GR value (BSJ-03-123; 0.03162 µM): 0.859 GR | GR value (BSJ-03-123; 0.1 µM): 0.884 GR | GR value (BSJ-03-123; 0.3162 µM): 0.795 GR | GR value (BSJ-03-123; 1 µM): 0.658 GR | GR value (BSJ-03-123; 3.162 µM): 0.549 GR | GR value (BSJ-03-123; 10 µM): -0.17 GR | GR value (LEE011/Ribociclib [9]; 0.001 µM): 0.925 GR | GR value (LEE011/Ribociclib [9]; 0.003162 µM): 0.95 GR | GR value (LEE011/Ribociclib [9]; 0.01 µM): 0.906 GR | GR value (LEE011/Ribociclib [9]; 0.03162 µM): 0.892 GR | GR value (LEE011/Ribociclib [9]; 0.1 µM): 0.859 GR | GR value (LEE011/Ribociclib [9]; 0.3162 µM): 0.823 GR | GR value (LEE011/Ribociclib [9]; 1 µM): 0.808 GR | GR value (LEE011/Ribociclib [9]; 3.162 µM): 0.736 GR | GR value (LEE011/Ribociclib [9]; 10 µM): 0.525 GR | GR value (THZ1; 0.0001 µM): 0.997 GR | GR value (THZ1; 0.0003162 µM): 0.998 GR | GR value (THZ1; 0.001 µM): 0.986 GR | GR value (THZ1; 0.003162 µM): 0.993 GR | GR value (THZ1; 0.01 µM): 0.898 GR | GR value (THZ1; 0.03162 µM): 0.539 GR | GR value (THZ1; 0.1 µM): 0.23 GR | GR value (THZ1; 0.3162 µM): 0.0499 GR | GR value (THZ1; 1 µM): -0.285 GR
